Source: ChEMBL document CHEMBL1201862, “PubChem BioAssay data set” (2004)
Several values for one entry are separate records, joined by “and”; a condition that tells them apart may be missing. Equal entries are not always repeated.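 These data come from cells grown in 96-well plates and exposed to compound for 48 hours at five concentrations. GI50 is the concentration that inhibits growth by half.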 Activity calls are given as the source filed them. Cut-off read from the data, not from the text of the source: active = GI50 up to about 1.1 µM and inactive = higher.

What was measured:
Assay in all cases: NCI anticancer screen, dose series, 48 h
786-0 = test system: 786-0
M14 = test system: M14
EKVX = test system: EKVX
RXF 631 = test system: RXF 631
SF-539 = test system: SF-539
NCI-H226 = test system: NCI-H226
XF498 = test system: XF498
RPMI-8226 = test system: RPMI-8226
OVCAR-8 = test system: OVCAR-8
NCI-H23 = test system: NCI-H23
SK-MEL-2 = test system: SK-MEL-2
TK-10 = test system: TK-10
UACC-62 = test system: UACC-62
A498 = test system: A498
CCRF-CEM = test system: CCRF-CEM
ACHN = test system: ACHN
HCT-116 = test system: HCT-116
OVCAR-4 = test system: OVCAR-4
LOX IMVI = test system: LOX IMVI
HCC 2998 = test system: HCC 2998
Malme-3M = test system: Malme-3M
LXFL 529 = test system: LXFL 529
KM12 = test system: KM12
SR = test system: SR
A549 = test system: A549
HT-29 = test system: HT-29
SNB-78 = test system: SNB-78
UO-31 = test system: UO-31
UACC-257 = test system: UACC-257
SK-OV-3 = test system: SK-OV-3
CAKI-1 = test system: CAKI-1
COLO 205 = test system: COLO 205
DLD-1 = test system: DLD-1
U-251 = test system: U-251
IGROV-1 = test system: IGROV-1
HOP-18 = test system: HOP-18
NCI-H522 = test system: NCI-H522
HL-60 = test system: HL-60
OVCAR-5 = test system: OVCAR-5
SK-MEL-5 = test system: SK-MEL-5
HCT-15 = test system: HCT-15
SK-MEL-28 = test system: SK-MEL-28
SNB-75 = test system: SNB-75
M19-MEL = test system: M19-MEL
SW-620 = test system: SW-620
K562 = test system: K562
HOP-92 = test system: HOP-92
SF-295 = test system: SF-295
SN12C = test system: SN12C
SF-268 = test system: SF-268
NCI-H460 = test system: NCI-H460
MOLT-4 = test system: MOLT-4
OVCAR-3 = test system: OVCAR-3
DMS-114 = test system: DMS-114
HOP-62 = test system: HOP-62
KM-20L2 = test system: KM-20L2
SNB-19 = test system: SNB-19
DMS-273 = test system: DMS-273
BT-549 = test system: BT-549
MDA-N = test system: MDA-N
MDA-MB-435 = test system: MDA-MB-435
NCI/ADR-RES = test system: NCI/ADR-RES
T47D = test system: T47D
DU-145 = test system: DU-145
RXF 393 = test system: RXF 393

Structure (SMILES): N/N=C(\Cc1ccccc1)NN=C(N)N
- GI50 (786-0): > 100 µM (inactive)
- GI50 (M14): > 100 µM (inactive)
- GI50 (EKVX): > 100 µM (inactive)
- GI50 (RXF 631): > 100 µM (inactive)
- GI50 (SF-539): > 100 µM (inactive)
- GI50 (NCI-H226): > 100 µM (inactive)
- GI50 (XF498): > 100 µM (inactive)
- GI50 (RPMI-8226): > 100 µM (inactive)
- GI50 (OVCAR-8): > 100 µM (inactive)
- GI50 (NCI-H23): > 100 µM (inactive)
- GI50 (SK-MEL-2): > 100 µM (inactive)
- GI50 (TK-10): > 100 µM (inactive)
- GI50 (UACC-62): > 100 µM (inactive)
- GI50 (A498): > 100 µM (inactive)
- GI50 (CCRF-CEM): 26.5 µM (inactive)
- GI50 (ACHN): 53.7 µM (inactive)
- GI50 (HCT-116): > 100 µM (inactive)
- GI50 (OVCAR-4): > 100 µM (inactive)
- GI50 (LOX IMVI): > 100 µM (inactive)
- GI50 (HCC 2998): > 100 µM (inactive)
- GI50 (Malme-3M): > 100 µM (inactive)
- GI50 (LXFL 529): > 100 µM (inactive)
- GI50 (KM12): > 100 µM (inactive)
- GI50 (SR): > 100 µM (inactive)
- GI50 (A549): > 100 µM (inactive)
- GI50 (HT-29): > 100 µM (inactive)
- GI50 (SNB-78): > 100 µM (inactive)
- GI50 (UO-31): > 100 µM (inactive)
- GI50 (UACC-257): > 100 µM (inactive)
- GI50 (SK-OV-3): > 100 µM (inactive)
- GI50 (CAKI-1): > 100 µM (inactive)
- GI50 (COLO 205): > 100 µM (inactive)
- GI50 (DLD-1): > 100 µM (inactive)
- GI50 (U-251): > 100 µM (inactive)
- GI50 (IGROV-1): > 100 µM (inactive)
- GI50 (HOP-18): > 100 µM (inactive)
- GI50 (NCI-H522): 32.1 µM (inactive)
- GI50 (HL-60): > 100 µM (inactive)
- GI50 (OVCAR-5): > 100 µM (inactive)
- GI50 (SK-MEL-5): > 100 µM (inactive)
- GI50 (HCT-15): 74.8 µM
- GI50 (SK-MEL-28): > 100 µM (inactive)
- GI50 (SNB-75): > 100 µM (inactive)
- GI50 (M19-MEL): > 100 µM (inactive)
- GI50 (SW-620): > 100 µM (inactive)
- GI50 (K562): > 100 µM (inactive)
- GI50 (HOP-92): > 100 µM (inactive)
- GI50 (SF-295): > 100 µM (inactive)
- GI50 (SN12C): > 100 µM (inactive)
- GI50 (SF-268): > 100 µM (inactive)
- GI50 (NCI-H460): > 100 µM (inactive)
- GI50 (MOLT-4): 47.1 µM (inactive)

Structure (SMILES): CC(C)N(C(=O)C12C3C4C1C1C2C3C41C(N)=O)C(C)C (stereo not drawn)
- GI50 (786-0): > 100 µM (inactive)
- GI50 (M14): > 100 µM (inactive)
- GI50 (EKVX): > 100 µM (inactive)
- GI50 (OVCAR-3): > 100 µM (inactive)
- GI50 (RXF 631): > 100 µM (inactive)
- GI50 (SF-539): > 100 µM (inactive)
- GI50 (OVCAR-8): > 100 µM (inactive)
- GI50 (A498): > 100 µM (inactive)
- GI50 (CCRF-CEM): > 100 µM (inactive)
- GI50 (ACHN): > 100 µM (inactive)
- GI50 (DMS-114): > 100 µM (inactive)
- GI50 (HCC 2998): > 100 µM (inactive)
- GI50 (Malme-3M): > 100 µM (inactive)
- GI50 (LXFL 529): > 100 µM (inactive)
- GI50 (HOP-62): > 100 µM (inactive)
- GI50 (SR): > 100 µM (inactive)
- GI50 (A549): > 100 µM (inactive)
- GI50 (SNB-78): > 100 µM (inactive)
- GI50 (KM-20L2): > 100 µM (inactive)
- GI50 (UO-31): > 100 µM (inactive)
- GI50 (SK-OV-3): > 100 µM (inactive)
- GI50 (CAKI-1): > 100 µM (inactive)
- GI50 (COLO 205): > 100 µM (inactive)
- GI50 (U-251): > 100 µM (inactive)
- GI50 (IGROV-1): > 100 µM (inactive)
- GI50 (NCI-H522): > 100 µM (inactive)
- GI50 (SNB-19): > 100 µM (inactive)
- GI50 (SK-MEL-5): > 100 µM (inactive)
- GI50 (HCT-15): > 100 µM
- GI50 (DMS-273): > 100 µM (inactive)
- GI50 (M19-MEL): > 100 µM (inactive)
- GI50 (SW-620): > 100 µM (inactive)
- GI50 (K562): > 100 µM (inactive)
- GI50 (HOP-92): > 100 µM (inactive)
- GI50 (SF-295): > 100 µM (inactive)
- GI50 (SN12C): > 100 µM (inactive)
- GI50 (SF-268): > 100 µM (inactive)
- GI50 (MOLT-4): > 100 µM (inactive)

Structure (SMILES): O=C1C(CN(Cc2ccccc2)Cc2ccccc2)CCCC1CN(Cc1ccccc1)Cc1ccccc1 (stereo not drawn)
- GI50 (BT-549): > 100 µM (inactive) and > 79.8 µM (inactive)
- GI50 (RXF 631): > 100 µM (inactive)
- GI50 (NCI-H226): > 68.7 µM (inactive) and 52.1 µM (inactive)
- GI50 (XF498): 15.1 µM (inactive)
- GI50 (MDA-N): > 76 µM (inactive)
- GI50 (A498): > 78.9 µM (inactive) and 41.5 µM (inactive)
- GI50 (HCC 2998): > 53.2 µM (inactive) and > 69.7 µM (inactive)
- GI50 (MDA-MB-435): > 100 µM (inactive) and > 92.3 µM (inactive)
- GI50 (HOP-62): > 62.1 µM (inactive)
- GI50 (A549): > 54.5 µM (inactive)
- GI50 (NCI/ADR-RES): > 100 µM (inactive) and > 89.1 µM (inactive)
- GI50 (SK-OV-3): > 61.1 µM (inactive) and 44.5 µM (inactive)
- GI50 (T47D): > 100 µM (inactive)
- GI50 (IGROV-1): 69.5 µM (inactive) and > 45.7 µM (inactive)
- GI50 (SNB-19): > 57 µM (inactive)
- GI50 (OVCAR-5): 34.8 µM (inactive) and > 65.3 µM (inactive)
- GI50 (SK-MEL-5): > 42.5 µM (inactive) and 66.8 µM (inactive)
- GI50 (DU-145): > 100 µM (inactive)
- GI50 (HOP-92): 16.7 µM (inactive) and 27.3 µM (inactive)
- GI50 (SF-295): 44.9 µM (inactive) and 35.9 µM (inactive)
- GI50 (NCI-H460): > 87.3 µM (inactive) and 43.9 µM (inactive)

Structure (SMILES): COC(=O)C(C(=O)C(=O)Nc1nc2ccc([N+](=O)[O-])cc2s1)c1nc2ccc(Cl)cc2nc1O (stereo not drawn)
- GI50 (786-0): > 100 µM (inactive)
- GI50 (M14): > 100 µM (inactive)
- GI50 (EKVX): > 100 µM (inactive)
- GI50 (OVCAR-3): > 100 µM (inactive)
- GI50 (RXF 631): > 100 µM (inactive)
- GI50 (SF-539): > 100 µM (inactive)
- GI50 (NCI-H226): > 100 µM (inactive)
- GI50 (RPMI-8226): > 100 µM (inactive)
- GI50 (OVCAR-8): > 100 µM (inactive)
- GI50 (NCI-H23): > 100 µM (inactive)
- GI50 (SK-MEL-2): > 100 µM (inactive)
- GI50 (TK-10): > 100 µM (inactive)
- GI50 (UACC-62): > 100 µM (inactive)
- GI50 (A498): 21.2 µM (inactive)
- GI50 (CCRF-CEM): > 100 µM (inactive)
- GI50 (ACHN): > 100 µM (inactive)
- GI50 (HCT-116): > 100 µM (inactive)
- GI50 (OVCAR-4): > 100 µM (inactive)
- GI50 (LOX IMVI): > 100 µM (inactive)
- GI50 (DMS-114): > 100 µM (inactive)
- GI50 (HCC 2998): > 100 µM (inactive)
- GI50 (Malme-3M): > 100 µM (inactive)
- GI50 (LXFL 529): > 100 µM (inactive)
- GI50 (HOP-62): > 100 µM (inactive)
- GI50 (KM12): > 100 µM (inactive)
- GI50 (SR): > 100 µM (inactive)
- GI50 (A549): > 100 µM (inactive)
- GI50 (HT-29): > 100 µM (inactive)
- GI50 (SNB-78): > 100 µM (inactive)
- GI50 (KM-20L2): > 100 µM (inactive)
- GI50 (UO-31): > 100 µM (inactive)
- GI50 (UACC-257): > 100 µM (inactive)
- GI50 (SK-OV-3): 35.2 µM (inactive)
- GI50 (CAKI-1): 71.3 µM (inactive)
- GI50 (RXF 393): > 100 µM (inactive)
- GI50 (COLO 205): > 100 µM (inactive)
- GI50 (DLD-1): > 100 µM (inactive)
- GI50 (U-251): 94.8 µM (inactive)
- GI50 (IGROV-1): > 100 µM (inactive)
- GI50 (HOP-18): > 100 µM (inactive)
- GI50 (NCI-H522): > 100 µM (inactive)
- GI50 (SNB-19): > 100 µM (inactive)
- GI50 (HL-60): > 100 µM (inactive)
- GI50 (OVCAR-5): > 100 µM (inactive)
- GI50 (SK-MEL-5): > 100 µM (inactive)
- GI50 (HCT-15): > 100 µM
- GI50 (DMS-273): > 100 µM (inactive)
- GI50 (SK-MEL-28): > 100 µM (inactive)
- GI50 (SNB-75): 52 µM (inactive)
- GI50 (M19-MEL): > 100 µM (inactive)
- GI50 (SW-620): > 100 µM (inactive)
- GI50 (K562): > 100 µM (inactive)
- GI50 (SF-295): > 100 µM (inactive)
- GI50 (SN12C): > 100 µM (inactive)
- GI50 (SF-268): > 100 µM (inactive)
- GI50 (NCI-H460): > 100 µM (inactive)
- GI50 (MOLT-4): > 100 µM (inactive)
